The target in the assay is T1, ITK (Jurkat or Molt4 cells) (Homo sapiens, UniProt Q08881).
T1 construct: either human Jurkat (Clone E6-1 ATCC TIB-152) or Motl4 (ATCC CRL-1552), were plated; endogenous in cells; host or cells: Jurkat Clone E6-1 (ATCC TIB-152) or Molt4 (ATCC CRL-1552)
T1 sequence (Q08881 1-620): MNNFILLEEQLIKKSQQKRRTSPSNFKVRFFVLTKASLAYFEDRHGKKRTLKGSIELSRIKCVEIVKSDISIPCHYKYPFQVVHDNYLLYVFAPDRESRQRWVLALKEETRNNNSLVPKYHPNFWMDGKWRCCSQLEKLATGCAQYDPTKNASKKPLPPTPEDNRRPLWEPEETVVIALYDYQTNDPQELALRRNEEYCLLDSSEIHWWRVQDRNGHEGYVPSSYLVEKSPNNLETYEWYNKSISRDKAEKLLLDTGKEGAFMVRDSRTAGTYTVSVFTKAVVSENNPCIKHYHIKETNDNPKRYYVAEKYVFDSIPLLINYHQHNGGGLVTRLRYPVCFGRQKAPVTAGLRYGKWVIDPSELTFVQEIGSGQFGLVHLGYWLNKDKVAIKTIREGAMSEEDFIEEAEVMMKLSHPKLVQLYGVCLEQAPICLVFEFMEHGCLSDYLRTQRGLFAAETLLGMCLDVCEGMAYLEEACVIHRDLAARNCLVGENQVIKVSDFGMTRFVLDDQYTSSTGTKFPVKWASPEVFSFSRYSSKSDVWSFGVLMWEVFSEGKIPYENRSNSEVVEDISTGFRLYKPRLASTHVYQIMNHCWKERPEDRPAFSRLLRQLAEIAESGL
Nature of the assay: ITK Degradation MSD (Meso Scale Discovery) Assay. In kind it is cell-based. The settings on record: 4 or 6 hrs incubation; for DC50: best fit IC50 used as DC50. The procedure: Compound dilution series (7-point, 5-fold dilutions in DMSO, rows B—H with replicate in Column 1/2, 3/4, 5/6, 7, and 8 at 2000× the final required concentrations were prepared in 96-well plate (Falcon, cat. no. 353077). Row A, Column 1-8 were control DMSO. The 2000× solutions ranged from 2 mM to 128 nM (final assay concentration range 1 μM to […]). The 2000×solutions were added to cells in 10 μL volume, for a final DMSO concentration of 0.5% and final assay compound concentration of 1×. For the cells, either human Jurkat (Clone E6-1 ATCC TIB-152) or Motl4 (ATCC CRL-1552), were plated at 1×10^6 cells/mL, 100 μL/well ([…]) in complete RPMI (10% FBS, 1% L-glutamine). The cells were incubated with compounds 26-29 for 4 or 6 hrs at 32° C./6% CO2.
Following incubation, plates were centrifuged at 1200 rpm for 5 min. Supernatant was removed and 50 μL of cell lysis buffer (MSD Tris lysis buffer (R60TX), complete Mini EDTA-free protease inhibitor (Sigma 11836170001), Protease Inhibitor Cocktail (Sigma, P2714), Phosphatase Inhibitor Cocktail 2 and 3 (Sigma, P5726 and P0044), Benzonase (Sigma, E1014)) was added to each well. Plate was sealed and shook at 4° C. for 30 min. Plate was centrifuged and 45 μL was removed for plate assay.
Assay plate preparation: Meso Scale Discovery (MSD) multi-array sm spot 96-well plates (Goat anti-Rabbit L^45-RA), were blocked with 3% BSA blocking buffer (3% Bovine Serum Albumin (Sigma A3059)+TBS 0.2% Tween-20) for one hour with gentle rocking at room temperature. Plate was then washed with 200 μL of 1×TBST (TBS 0.2% Tween-20) three times. After the last wash, all liquid was removed and 50 μL per well of capture antibody (abcam ITK Y402-ab32507) was added to plate at a 1:1000 dilution in blocking buffer (see above). Plate was sealed and rocked at room temperature for 2 hrs. Plate was then washed three times with 200 μL of 1×TBST. After the last wash, all liquid was removed and 45 μL of cell lysate (from above) was added to plate. Plate was sealed and rocked overnight at 4° C. The next day, cell lysates were removed, and assay plate was washed three times with 200 μL of 1×TBST. After the last wash, liquid was removed and detection antibody (CST ITK (2F12) #2380) was added at 50 μL per well at a dilution of 1:1000 in blocking buffer. Plate was sealed and rocked at room temperature for 2 hrs. Plate was washed three times with 200 μL of 1×TBST. After the last wash, all liquid was removed, MSD […] sulfo tag (R32AC-1) was diluted to 1:1000 in blocking buffer. 50 μL was added to each well on the plate. Plate was sealed and incubated at room temperature for one hour. Plate was washed three times with 200 μL of 1×TBST. After last wash, all liquid was removed and 150 μL of 1×MSD Read Buffer T (R92PC) was then added to each well for ECL read out.
For reading ECL signal, plate was read on a Meso Scale Discovery (MSD) MESO Sector S 600 plate reader. Percent ITK was then calculated as described below.
Percent ITK remaining per sample was calculated as follows: […]
Using Graphpad Prism, % ITK remaining values were plotted as a function of compound concentration. To determine DC50 and Dmax values, resulting curves were fit to the Prism curve-fitting equation “log(inhibitor) vs response−Variable slope (four parameters)” (reported best fit value IC50 used as DC50).

In turn, `Cc1ncsc1-c1ccc([C@H](C)NC(=O)[C@@H]2C[C@@H](O)CN2C(=O)[C@@H](NC(=O)c2ccc(N3CCC(C(=O)N4CC([C@@H](c5ccccc5)n5cc(NC(=O)c6n[nH]c7c6C[C@@H]6C(F)(F)[C@]6(C)C7)cn5)C4)CC3)cn2)C(C)(C)C)cc1` [Compound 31, (4aS,5aR)-5,5-difluoro-N-(1-((S)-(1-(1-(6-(((S)-1-((2S,4R)-4-hydroxy-2-(((S)-1-(4-(4-methylthiazol-5-yl)phenyl)ethyl)carbamoyl)pyrrolidin-1-yl)-3,3-dimethyl-1-oxobutan-2-yl)carbamoyl)pyridin-3-yl)piperidine-4-carbonyl)azetidin-3-yl)(phenyl)methyl)-1H-pyrazol-4-yl)-5a-methyl-1,4,4a,5,5a,6-hexahydrocyclopropa[f]indazole-3-carboxamide] had a Dmax of 88.8% and a DC50 of 30.1 nM.
For `Cc1ncsc1-c1ccc(CNC(=O)[C@@H]2C[C@@H](O)CN2C(=O)[C@@H](NC(=O)C2(F)CC2)C(C)(C)C)c(OCCCC(=O)N2CC([C@@H](c3ccccc3)n3cc(NC(=O)c4n[nH]c5c4C[C@@H]4C(F)(F)[C@]4(C)C5)cn3)C2)c1` [Compound 33, (4aS,5aR)-5,5-difluoro-N-(1-((S)-(1-(4-(2-(((2S,4R)-1-((S)-2-(1-fluorocyclopropane-1-carboxamido)-3,3-dimethylbutanoyl)-4-hydroxypyrrolidine-2-carboxamido)methyl)-5-(4-methylthiazol-5-yl)phenoxy)butanoyl)azetidin-3-yl)(phenyl)methyl)-1H-pyrazol-4-yl)-5a-methyl-1,4,4a,5,5a,6-hexahydrocyclopropa[f]indazole-3-carboxamide], in that order: 94.5% and 27.9 nM.
As to `Cc1ncsc1-c1ccc([C@H](C)NC(=O)[C@@H]2C[C@@H](O)CN2C(=O)[C@@H](NC(=O)CC2CCN(c3ccc(C(=O)N4CC([C@@H](c5ccccc5)n5cc(NC(=O)c6n[nH]c7c6C[C@@H]6C(F)(F)[C@]6(C)C7)cn5)C4)nc3)CC2)C(C)(C)C)cc1` [Compound 22, (4aS,5aR)-5,5-difluoro-N-(1-((S)-(1-(5-(4-(2-(((S)-1-((2S,4R)-4-hydroxy-2-(((S)-1-(4-(4-methylthiazol-5-yl)phenyl)ethyl)carbamoyl)pyrrolidin-1-yl)-3,3-dimethyl-1-oxobutan-2-yl)amino)-2-oxoethyl)piperidin-1-yl)picolinoyl)azetidin-3-yl)(phenyl)methyl)-1H-pyrazol-4-yl)-5a-methyl-1,4,4a,5,5a,6-hexahydrocyclopropa[f]indazole-3-carboxamide], the Dmax turned out to be 88% and the DC50 was determined as 3.78 nM.
For the compound `Cc1ncsc1-c1ccc(CNC(=O)[C@@H]2C[C@@H](O)CN2C(=O)[C@@H](NC(=O)C2(F)CC2)C(C)(C)C)c(OCCCCC(=O)N2CC([C@@H](c3ccccc3)n3cc(NC(=O)c4n[nH]c5c4C[C@@H]4C(F)(F)[C@]4(C)C5)cn3)C2)c1` [Compound 34, (4aS,5aR)-5,5-difluoro-N-(1-((S)-(1-(5-(2-(((2S,4R)-1-((S)-2-(1-fluorocyclopropane-1-carboxamido)-3,3-dimethylbutanoyl)-4-hydroxypyrrolidine-2-carboxamido)methyl)-5-(4-methylthiazol-5-yl)phenoxy)pentanoyl)azetidin-3-yl)(phenyl)methyl)-1H-pyrazol-4-yl)-5a-methyl-1,4,4a,5,5a,6-hexahydrocyclopropa[f]indazole-3-carboxamide], the Dmax was 94% and it took 10.8 nM to reach half-maximal degradation (DC50).
In turn, `Cc1ncsc1-c1ccc([C@H](C)NC(=O)[C@@H]2C[C@@H](O)CN2C(=O)[C@@H](NC(=O)CCOCCOCCC(=O)N2CC([C@@H](c3ccccc3)n3cc(NC(=O)c4n[nH]c5c4C[C@@H]4C(F)(F)[C@]4(C)C5)cn3)C2)C(C)(C)C)cc1` [Compound 30, (4aS,5aR)-5,5-difluoro-N-(1-((S)-(1-(3-(2-(3-(((S)-1-((2S,4R)-4-hydroxy-2-(((S)-1-(4-(4-methylthiazol-5-yl)phenyl)ethyl)carbamoyl)pyrrolidin-1-yl)-3,3-dimethyl-1-oxobutan-2-yl)amino)-3-oxopropoxy)ethoxy)propanoyl)azetidin-3-yl)(phenyl)methyl)-1H-pyrazol-4-yl)-5a-methyl-1,4,4a,5,5a,6-hexahydrocyclopropa[f]indazole-3-carboxamide] had a maximal degradation (Dmax) of 86.3% and a DC50 of 38.8 nM.
Compound `CN[C@@H](C)C(=O)N[C@H](C(=O)N1CCC[C@H]1c1nc(C(=O)c2cccc(OCCCCCN3CC([C@@H](c4ccccc4)n4cc(NC(=O)c5n[nH]c6c5C[C@@H]5C(F)(F)[C@]5(C)C6)cn4)C3)c2)cs1)C1CCCCC1` [Compound 10, (4aS,5aR)—N-(1-((S)-(1-(5-(3-(2-((S)-1-((S)-2-cyclohexyl-2-((S)-2-(methylamino)propanamido)acetyl)pyrrolidin-2-yl)thiazole-4-carbonyl)phenoxy)pentyl)azetidin-3-yl)(phenyl)methyl)-1H-pyrazol-4-yl)-5,5-difluoro-5a-methyl-1,4,4a,5,5a,6-hexahydrocyclopropa[f]indazole-3-carboxamide] came in with a DC50 of 22.2 nM.
For `CN[C@@H](C)C(=O)N[C@H](C(=O)N1CCC[C@H]1c1nc(C(=O)c2cccc(OCCCCCCN3CC([C@@H](c4ccccc4)n4cc(NC(=O)c5n[nH]c6c5C[C@@H]5C(F)(F)[C@]5(C)C6)cn4)C3)c2)cs1)C1CCCCC1` [Compound 9, (4aS,5aR)—N-(1-((S)-(1-(6-(3-(2-((S)-1-((S)-2-cyclohexyl-2-((S)-2-(methylamino)propanamido)acetyl)pyrrolidin-2-yl)thiazole-4-carbonyl)phenoxy)hexyl)azetidin-3-yl)(phenyl)methyl)-1H-pyrazol-4-yl)-5,5-difluoro-5a-methyl-1,4,4a,5,5a,6-hexahydrocyclopropa[f]indazole-3-carboxamide], the DC50 was found to be 52.9 nM.
With `Cc1ncsc1-c1ccc(CNC(=O)[C@@H]2C[C@@H](O)CN2C(=O)[C@@H](NC(=O)CCOCCOCCOCCC(=O)N2CC([C@@H](c3ccccc3)n3cc(NC(=O)c4n[nH]c5c4C[C@@H]4C(F)(F)[C@]4(C)C5)cn3)C2)C(C)(C)C)cc1` [Compound 15, (4aS,5aR)-5,5-difluoro-N-(1-((S)-(1-((S)-15-((2S,4R)-4-hydroxy-2-((4-(4-methylthiazol-5-yl)benzyl)carbamoyl)pyrrolidine-1-carbonyl)-16,16-dimethyl-13-oxo-4,7,10-trioxa-14-azaheptadecanoyl)azetidin-3-yl)(phenyl)methyl)-1H-pyrazol-4-yl)-5a-methyl-1,4,4a,5,5a,6-hexahydrocyclopropa[f]indazole-3-carboxamide], the DC50 was 54.7 nM.

For orientation: Dmax means the greatest extent of degradation seen. A lower Dmax goes with shallow degradation. A word on the DC50: it is the midpoint of the concentration-degradation curve. Read a high DC50 as a less potent degrader.

Source of the values: US20250002489A1, “BIFUNCTIONAL COMPOUNDS FOR DEGRADING ITK VIA UBIQUITIN PROTEOSOME PATHWAY” (NURIX THERAPEUTICS, INC., priority 2021, published 2025).
